Reference: PMC12655445, “In Vitro and In Vivo Effects of Resveratrol on Rat Hepatic CYP1A2” (Pharmaceuticals, 2025)

B1: human recombinant CYP1A2 (Homo sapiens) (protein)
chain: ALSQSVPFSATELLLASAIFCLVFWVLKGLRPRVPKGLKSPPEPWGWPLLGHVLTLGKNPHLALSRMSQRYGDVLQIRIGSTPVLVLSRLDTIRQALVRQGDDFKGRPDLYTSTLITDGQSLTFSTDSGPVWAARRRLAQNALNTFSIASDPASSSSCYLEEHVSKEAKALISRLQELMAGPGHFDPYNQVVVSVANVIGAMCFGQHFPESSDEMLSLVKNTHEFVETASSGNPLDFFPILRYLPNPALQRFKAFNQRFLWFLQKTVQEHYQDFDKNSVRDITGALFKHSKKGPRASGNLIPQEKIVNLVNDIFGAGFDTVTTAISWSLMYLVTKPEIQRKIQKELDTVIGRERRPRLSDRPQLPYLEAFILETFRHSSFLPFTIPHSTTRDTTLNGFYIPKKCCVFVNQWQVNHDPELWEDPSEFRPERFLTADGTAINKPLSEKMMLFGMGKRRCIGEVLAKWEIFLFLAILLQQLEFSVPPGVKVDLTPIYGLTMKHARCEHVQARLRFSIN
notes: human CYP1A2 expressed with NADPH P450 reductase in Escherichia coli DH5α; bacterial membranes; with NADPH P450 reductase

Columns and labels:
[1] = molecular target: T1, rat liver microsomal CYP1A2 (Rattus norvegicus, UniProt P04799); assay: MROD fluorescence assay in rat liver microsomes, inhibition kinetics (IC50 […]); assay type: biochemical
T1 construct: rat liver microsomes
T1 sequence (P04799 2-513): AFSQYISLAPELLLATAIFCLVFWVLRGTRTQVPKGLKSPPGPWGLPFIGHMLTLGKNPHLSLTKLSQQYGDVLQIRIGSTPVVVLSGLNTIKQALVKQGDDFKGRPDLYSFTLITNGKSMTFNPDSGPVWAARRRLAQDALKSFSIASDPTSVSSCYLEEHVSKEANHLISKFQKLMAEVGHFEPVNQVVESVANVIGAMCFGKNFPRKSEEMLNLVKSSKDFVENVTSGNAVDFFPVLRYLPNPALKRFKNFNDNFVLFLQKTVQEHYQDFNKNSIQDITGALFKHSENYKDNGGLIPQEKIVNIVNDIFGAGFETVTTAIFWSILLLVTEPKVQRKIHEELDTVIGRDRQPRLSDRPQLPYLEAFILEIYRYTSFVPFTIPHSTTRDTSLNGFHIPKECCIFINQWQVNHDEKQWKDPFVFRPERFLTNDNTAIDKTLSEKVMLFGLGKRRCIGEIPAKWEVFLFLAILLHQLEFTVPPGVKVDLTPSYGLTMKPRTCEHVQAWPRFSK

[2] = substrate: COc1ccc2nc3ccc(=O)cc-3oc2c1; assay: MROD kinetics with recombinant CYP1A2 membranes; value is Km; assay type: biochemical, Homo sapiens; settings: heme; NADPH

Row | Molecule | Ki [1] [µM] | Km [2] [µM]
1 | Oc1ccc(/C=C/c2cc(O)cc(O)c2)cc1 [RSV, trans-3,4′,5-trihydroxystilbene] | 49.1 | 
2 | B1 |  | 1.67
